Assay results: ChEMBL document CHEMBL1201862, “PubChem BioAssay data set” (2004)
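Grown in 96-well plates, cells were treated for 48 hours with each compound at five concentrations. Insufficient inhibition: endpoint recorded as highest concentration tested. GI50 is the concentration that inhibits growth by half.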 The source made the active and inactive calls. Cut-off read from the data, not from the text of the source: active = GI50 up to about 1.1 µM and inactive = higher.

How the values were obtained:
Assay in all cases: growth of human tumour cells (NCI), 48 h
HL-60 = tested on: HL-60
HT-29 = tested on: HT-29
NCI/ADR-RES = tested on: NCI/ADR-RES
KM12 = tested on: KM12
M14 = tested on: M14
786-0 = tested on: 786-0
CCRF-CEM = tested on: CCRF-CEM
K562 = tested on: K562
OVCAR-8 = tested on: OVCAR-8
A498 = tested on: A498
HCT-116 = tested on: HCT-116
ACHN = tested on: ACHN
OVCAR-4 = tested on: OVCAR-4
CAKI-1 = tested on: CAKI-1
HOP-62 = tested on: HOP-62
SK-MEL-2 = tested on: SK-MEL-2
UO-31 = tested on: UO-31
UACC-62 = tested on: UACC-62
NCI-H23 = tested on: NCI-H23
SNB-19 = tested on: SNB-19
HCT-15 = tested on: HCT-15
RXF 393 = tested on: RXF 393
NCI-H460 = tested on: NCI-H460
HCC 2998 = tested on: HCC 2998
COLO 205 = tested on: COLO 205
A549 = tested on: A549
OVCAR-5 = tested on: OVCAR-5
T47D = tested on: T47D
UACC-257 = tested on: UACC-257
SK-OV-3 = tested on: SK-OV-3
Hs-578T = tested on: Hs-578T
IGROV-1 = tested on: IGROV-1
PC-3 = tested on: PC-3
SNB-75 = tested on: SNB-75
NCI-H522 = tested on: NCI-H522
MCF7 = tested on: MCF7
BT-549 = tested on: BT-549
SN12C = tested on: SN12C
EKVX = tested on: EKVX
SF-268 = tested on: SF-268
SF-295 = tested on: SF-295
MDA-MB-435 = tested on: MDA-MB-435
SK-MEL-5 = tested on: SK-MEL-5
OVCAR-3 = tested on: OVCAR-3
TK-10 = tested on: TK-10
U-251 = tested on: U-251
SW-620 = tested on: SW-620
HOP-92 = tested on: HOP-92
MOLT-4 = tested on: MOLT-4
NCI-H226 = tested on: NCI-H226
SF-539 = tested on: SF-539
DU-145 = tested on: DU-145
LOX IMVI = tested on: LOX IMVI
RPMI-8226 = tested on: RPMI-8226

SMILES: S=c1sc2ccccc2n1CN1CCN(Cc2ccccc2)CC1
- GI50 (HL-60): > 100 µM (inactive)
- GI50 (HT-29): > 100 µM (inactive)
- GI50 (NCI/ADR-RES): > 100 µM (inactive)
- GI50 (KM12): > 100 µM (inactive)
- GI50 (M14): > 100 µM (inactive)
- GI50 (786-0): > 100 µM (inactive)
- GI50 (CCRF-CEM): > 100 µM (inactive)
- GI50 (K562): > 100 µM (inactive)
- GI50 (OVCAR-8): > 100 µM (inactive)
- GI50 (A498): > 100 µM (inactive)
- GI50 (HCT-116): > 100 µM (inactive)
- GI50 (ACHN): > 100 µM (inactive)
- GI50 (OVCAR-4): > 100 µM (inactive)
- GI50 (CAKI-1): > 100 µM (inactive)
- GI50 (HOP-62): > 100 µM (inactive)
- GI50 (SK-MEL-2): > 100 µM (inactive)
- GI50 (UO-31): > 100 µM (inactive)
- GI50 (UACC-62): > 100 µM (inactive)
- GI50 (NCI-H23): > 100 µM (inactive)
- GI50 (SNB-19): > 100 µM (inactive)
- GI50 (HCT-15): > 100 µM
- GI50 (RXF 393): > 100 µM (inactive)
- GI50 (NCI-H460): > 100 µM (inactive)
- GI50 (HCC 2998): > 100 µM (inactive)
- GI50 (COLO 205): > 100 µM (inactive)
- GI50 (A549): > 100 µM (inactive)
- GI50 (OVCAR-5): > 100 µM (inactive)
- GI50 (T47D): > 100 µM (inactive)
- GI50 (UACC-257): > 100 µM (inactive)
- GI50 (SK-OV-3): > 100 µM (inactive)
- GI50 (Hs-578T): > 100 µM (inactive)
- GI50 (IGROV-1): > 100 µM (inactive)
- GI50 (PC-3): > 100 µM (inactive)
- GI50 (SNB-75): > 100 µM (inactive)
- GI50 (NCI-H522): > 100 µM (inactive)
- GI50 (MCF7): > 100 µM (inactive)
- GI50 (BT-549): > 100 µM (inactive)
- GI50 (SN12C): > 100 µM (inactive)
- GI50 (EKVX): > 100 µM (inactive)
- GI50 (SF-268): > 100 µM (inactive)
- GI50 (SF-295): > 100 µM (inactive)
- GI50 (MDA-MB-435): > 100 µM (inactive)
- GI50 (SK-MEL-5): > 100 µM (inactive)
- GI50 (OVCAR-3): > 100 µM (inactive)
- GI50 (TK-10): > 10 µM (inactive)
- GI50 (U-251): > 100 µM (inactive)
- GI50 (SW-620): > 100 µM (inactive)
- GI50 (HOP-92): > 100 µM (inactive)
- GI50 (MOLT-4): > 100 µM (inactive)
- GI50 (NCI-H226): > 100 µM (inactive)
- GI50 (SF-539): > 100 µM (inactive)
- GI50 (DU-145): > 100 µM (inactive)
- GI50 (LOX IMVI): > 100 µM (inactive)
- GI50 (RPMI-8226): > 100 µM (inactive)
